How the values were obtained:
Assay type in all cases: biochemical
[1] = test system: tubulin; test: electron microscopic analysis of microtubules; details: tubulin 1 mg/ml, 37° C., 30 minutes
Method: When tubulin polymerization was monitored by measuring the absorbance as in Example 1, increase in the absorbance may occur not only by microtubule assembly but also by the aggregation of tubulins. Thus, in order to confirm that the turbidity change is caused by microtubule assembly, the morphology of the polymers was examined with electron microscopy. Tubulin was added to 0.1M MES buffer to a concentration of 1 mg/ml, and GTP, taxol or TALP was added to a final reaction volume of 250 μl. The reaction mixture was incubated at 37° C. for 30 minutes, and the absorbance change at 350 nm was monitored. At this time, the reaction solutions showing increase in the absorbance were fixed and applied to a carbon-coated grids, and dried. Grids were then stained with 1% uranyl acetate for 5 minutes, washed with distilled water, and dried. And then, they were examined with electron microscope(Hitachi H-600, Japan) at an accelerated voltage of 75 kv.

[2] = test system: tubulin; test: effect of cold temperature (4° C.) on microtubules assembled by GTP, taxol or TALP; details: chilled to 4° C.
Method: To investigate effect of cold temperature on tubulin polymerization, tubulin was added to 0.1M MES buffer(pH 6.8). Then GTP, taxol or TALP was added to the reaction mixture, and polymerization of microtubules were carried out at 37° C. for 15 minutes. Then, the reaction solution was chilled to a temperature of 4° C., and depolymerization of microtubules assembled was measured, with the addition of GTP, taxol or TALP(see: FIG. 6).

[3] = test system: tubulin isolated from bovine brain; test: coprecipitation of tubulin and TALP (centrifugation, SDS-PAGE of supernatants and pellets); details: tubulin 0.4 mg/ml, 37° C., 30 minutes
Method: To investigate whether TALP promotes microtubule assembly in the same manner as taxol, tubulin isolated from bovine brain was added to 0.1M MES buffer(pH 6.8) to a concentration of 0.4 mg/ml. Then, 2 mM GTP, 10 μM taxol or 4 μM TALP was added to the reaction mixture, and polymerization of microtubules were carried out at 37° C. for 30 minutes. The reaction mixtures were centrifuged for 20 minutes, and the supernatants and the pellets thus obtained were analyzed by 12% SDS-PAGE(see: FIG. 7(A)).
Also, tubulin polymerization was investigated with the variation of TALP concentration. […] In FIGS. 7(A) and 7(B), S and P designate supernatant and pellet, respectively.

[4] = test system: tubulin; test: effect of Ca2+ on microtubules assembled by GTP, taxol or TALP; details: 4 mM CaCl2
Method: To investigate effect of Ca^2+ on tubulin polymerization, tubulin was added to 0.1M MES buffer(pH 6.8) free of EGTA, and GTP, taxol or TALP was added, and polymerization of microtubules were carried out at 37° C. for 15 minutes. Then, 4 mM CaCl2 was added to the reaction mixture, and depolymerization of microtubules assembled was measured, with the addition of GTP, taxol or TALP(see: FIG. 5).

[5] = test system: tubulin; test: tubulin polymerization monitored by turbidity (absorbance at 350 nm); details: 20 μM taxol; control 2 mM GTP
Method: All of the purification steps were carried out under 4° C., and TALP activity was determined by the conventional tubulin polymerization which was monitored by turbidity(see: Gaskin, F. et al., 1974, J. Mol. Biol., 89:737-758): Tubulin prepared according to the method of Hamel et al. or Asnes et al.(see: Hamel E. et al., 1981, Arch. Biochem. Biophys., 209:29-40; Asnes, C. F. and Wilson, L., 1979, Anal. Biochem., 98:64-73) was added to 0.1M MES(2-[N-morpholino]ethane sulfonic acid) buffer(0.1M MES containing 1 mM EGTA and 1 mM MgCl2, pH 6.8) to a final concentration of 1 mg/ml, and TALP containing solution was added to a final reaction volume of 250 μl. The reaction mixture was incubated at 37° C. for 30 minutes, and the change in absorbance at 350 nm was monitored with a Gilford Model 2600 spectrophotometer(Gilford, USA).
Effects of GTP, taxol and TALP on tubulin polymerization were examined in the same manner as described in Example 1.
When 0.5 μM of TALP was added to the reaction mixture, tubulin polymerization occurred twice or more as high as one without TALP(see: FIG. 4).

Structure (SMILES) | morphology of the polymers by electron microscopy [1] | microtubules depolymerized at 4° C. ([2]; assembled by 2 mM GTP) | tubulins polymerized ([3]; 2 mM GTP) | microtubules depolymerized by Ca2+ ([4]; assembled by 2 mM GTP) | microtubules depolymerized at 4° C. ([2]; assembled by 10 μM taxol) [%] | tubulin polymerization, times as high as the control [5] [times] | tubulins polymerized ([3]; 10 μM taxol) | microtubules depolymerized by Ca2+ ([4]; assembled by 10 μM taxol) [%]
Nc1nc2c(ncn2[C@@H]2O[C@H](COP(=O)(O)OP(=O)(O)OP(=O)(O)O)[C@@H](O)[C@H]2O)c(=O)[nH]1 [GTP] | typical microtubules were assembled | most | most of tubulins were not polymerized | most | – | – | – | –
CC(=O)O[C@H]1C(=O)[C@@]2(C)[C@H]([C@H](OC(=O)c3ccccc3)[C@]3(O)C[C@H](OC(=O)[C@H](O)[C@@H](NC(=O)c4ccccc4)c4ccccc4)C(C)=C1C3(C)C)[C@]1(OC(C)=O)CO[C@@H]1C[C@@H]2O [taxol] | typical microtubules were assembled | – | – | – | 25 | 2.5 | about 20% | 30

Source: patent publication US20010034322A1, “Taxol-like protein (TALP) and process for preparing the same” (priority 1996, published 2001)
